Test results taken from patent US20180353460A1, “METHODS OF TREATING UROLOGICAL DISORDERS USING SARMs” (priority 2014, published 2018).
Where “and” joins values, the source holds several entries; their conditions need not be identical. Equal values may be shown once.

Test system: prostate, seminal vesicles and levator ani muscle
Test: Androgenic and anabolic activity in castrated (ORX) male rats, daily oral gavage for fourteen days
Assay type: in vivo, rat
Settings: for ED50 in levator ani / ED50 in prostate / ED50 in seminal vesicles / Emax in levator ani / Emax in prostate / Emax in seminal vesicles: ORX rats, nonlinear regression; for dose that fully maintained or restored levator ani muscle weight (100% of intact) / levator ani muscle weight / prostate weight / seminal vesicle weight: castrated (ORX) rats; for levator ani muscle weight / prostate weight / seminal vesicle weight: oral gavage 14 days
Method: Male Sprague-Dawley rats weighing approximately 200 g were purchased from Harlan Bioproducts for Science (Indianapolis, Ind.). […] The anabolic and androgenic activity of compound of Formula VIII in intact animals was tested, as well as a dose response evaluation in acutely orchidectomized (ORX) animals. Regenerative effects of the compound of Formula VIII in chronically (9 days) ORX rats was similarly evaluated.
The test article for this study was weighed and dissolved in 10% DMSO (Fisher) diluted with PEG 300 (Acros Organics, NJ) for preparation of the appropriate dosage concentrations. […] Animals were randomly assigned to one of seven groups consisting of 4 to 5 animals per group. Control groups (intact and ORX) were administered vehicle daily. Compound of Formula VIII was administered via oral gavage at doses of 0.01, 0.03, 0.1, 0.3, 0.75, and 1 mg/day to both intact and ORX groups. Where appropriate, animals were castrated on day one of the study. Treatment with compound of Formula VIII began nine days post ORX and was administered daily via oral gavage for fourteen days.
(§1) In addition, ventral prostate, seminal vesicles, and levator ani muscle were removed, individually weighed, normalized to body weight, and expressed as a percentage of intact control. Student's T-test was used to compare individual dose groups to the intact control group. Significance was defined a priori as a P-value <0.05. Ventral prostate and seminal vesicle weights were evaluated as a measure of androgenic activity, whereas levator ani muscle weight was evaluated as a measure of anabolic activity. Blood was collected from the abdominal aorta, centrifuged, and sera were frozen at −80° C. prior to determination of serum hormone levels. Serum luteinizing hormone (LH) and follicle stimulating hormone (FSH) concentrations were determined.
Male Sprague-Dawley rats weighing approximately 200 g were purchased from Harlan Bioproducts for Science (Indianapolis, Ind.). […] Anabolic and androgenic activity of compound of Formula IX in intact animals was evaluated, and the dose response in acutely orchidectomized (ORX) animals was evaluated as well. Regenerative effects of compound of Formula IX in chronically (9 days) ORX rats were also assessed.
The compound was weighed and dissolved in 10% DMSO (Fisher) diluted with PEG 300 (Acros Organics, NJ) for preparation of the appropriate dosage concentrations. […] Intact and ORX animals were randomly assigned to one of seven groups consisting of 4 to 5 animals per group. Control groups (intact and ORX) were administered vehicle daily. Compound of Formula IX was administered via oral gavage at doses of 0.01, 0.03, 0.1, 0.3, 0.75, and 1 mg/day to both intact and ORX groups.
as §1, with “Castrated animals (on day one of the study) were randomly assigned to dose groups (4-5 animals/group) of 0.01, 0.03, 0.1, 0.3, 0.75, and 1 mg/day, for dose-response evaluation. Dosing began nine days post ORX and was administered daily via oral gavage for fourteen days. […] In” for “In”, “As a measure of androgenic activity, ventral” for “Ventral”, “evaluated,” for “evaluated as a measure of androgenic activity,”, “lutenizing” for “luteinizing”
Male Sprague-Dawley rats weighing approximately 200 g were purchased from Harlan Bioproducts for Science (Indianapolis, Ind.).

C[C@](O)(COc1ccc(C#N)c(F)c1)C(=O)Nc1ccc(C#N)c(C(F)(F)F)c1 [XIII, (S)—N-(4-cyano-3-(trifluoromethyl)phenyl)-3-(4-cyano-3-fluorophenoxy)-2-hydroxy-2-methylpropanamide]
ED50 in levator ani: 0.03 ± 0.01 mg/day | ED50 in prostate: 0.21 ± 0.04 mg/day | ED50 in seminal vesicles: 0.2 ± 0.04 mg/day | Emax in levator ani: 147%±10% | Emax in prostate: 147%±10% | Emax in seminal vesicles: 188%±135% | dose that fully maintained or restored levator ani muscle weight (100% of intact) (oral gavage): 0.03 mg/day | levator ani muscle weight (0.01 mg/day): 71%±4% | prostate weight (0.01 mg/day): 24%±4% | seminal vesicle weight (0.01 mg/day): 15%±2% | levator ani muscle weight (0.03 mg/day): 101%±15% | prostate weight (0.03 mg/day): 37%±9% | seminal vesicle weight (0.03 mg/day): 25%±9% | levator ani muscle weight (0.1 mg/day): 125%±20% | prostate weight (0.1 mg/day): 50%±11% | seminal vesicle weight (0.1 mg/day): 67%±20% | levator ani muscle weight (0.3 mg/day): 126%±14% | prostate weight (0.3 mg/day): 88%±16% | seminal vesicle weight (0.3 mg/day): 113%±6% | levator ani muscle weight (0.75 mg/day): 151±9% | prostate weight (0.75 mg/day): 132%±16% | seminal vesicle weight (0.75 mg/day): 155%±16% | levator ani muscle weight (1 mg/day): 143±17% | prostate weight (1 mg/day): 118±12% | seminal vesicle weight (1 mg/day): 160%±7%

C[C@](O)(COc1ccc(C#N)cc1)C(=O)Nc1ccc(C#N)c(C(F)(F)F)c1 [Compound IX, (S)—N-(4-Cyano-3-(trifluoromethyl)phenyl)-3-(4-cyanophenoxy)-2-hydroxy-2-methylpropanamide]
ED50 in levator ani: 0.02 ± 0.01 mg/day | ED50 in prostate: 0.09 ± 0.07 mg/day | ED50 in seminal vesicles: 0.17 ± 0.05 mg/day | Emax in levator ani: 131%±2% | Emax in prostate: 83%±25% | Emax in seminal vesicles: 85%±11% | dose that fully maintained or restored levator ani muscle weight (100% of intact) (oral gavage): > 0.1 mg/day | levator ani muscle weight (0.01 mg/day): 59%±6% | prostate weight (0.01 mg/day): 8%±2% | seminal vesicle weight (0.01 mg/day): 12%±4% | levator ani muscle weight (0.03 mg/day): 85%±9% | prostate weight (0.03 mg/day): 20%±5% | seminal vesicle weight (0.03 mg/day): 17%±5% | levator ani muscle weight (0.1 mg/day): 112%±10% | prostate weight (0.1 mg/day): 51%±19% | seminal vesicle weight (0.1 mg/day): 35%±10% | levator ani muscle weight (0.3 mg/day): 122%±16% | prostate weight (0.3 mg/day): 56%±9% | seminal vesicle weight (0.3 mg/day): 61%±15% | levator ani muscle weight (0.75 mg/day): 127±12% | prostate weight (0.75 mg/day): 80%±28% | seminal vesicle weight (0.75 mg/day): 70%±14% | levator ani muscle weight (1 mg/day): 129.66±2% | prostate weight (1 mg/day): 74±12.5% | seminal vesicle weight (1 mg/day): 80%±6%

C[C@](O)(COc1ccc(C#N)cc1)C(=O)Nc1ccc(C#N)c(Cl)c1 [VIII, (S)—N-(3-Chloro-4-cyanophenyl)-3-(4-cyanophenoxy)-2-hydroxy-2-methylpropanamide]
levator ani muscle weight (0.01 mg/day): 52%±8% | prostate weight (0.01 mg/day): 17%±6% | seminal vesicle weight (0.01 mg/day): 10%±3% | levator ani muscle weight (0.03 mg/day): 67%±9% | prostate weight (0.03 mg/day): 31%±3% | seminal vesicle weight (0.03 mg/day): 13%±4% | levator ani muscle weight (0.1 mg/day): 98%±10% | prostate weight (0.1 mg/day): 43%±15% and 43±15% | seminal vesicle weight (0.1 mg/day): 21%±6% | levator ani muscle weight (0.3 mg/day): 103%±12% | prostate weight (0.3 mg/day): 54%±17% | seminal vesicle weight (0.3 mg/day): 43%±8% | levator ani muscle weight (0.75 mg/day): 105%±12% | prostate weight (0.75 mg/day): 58%±10% | seminal vesicle weight (0.75 mg/day): 51%±9% | levator ani muscle weight (1 mg/day): 110%±17% and 110±17% | prostate weight (1 mg/day): 73%±12% and 73±12% | seminal vesicle weight (1 mg/day): 69%±14% | anabolic ratio muscle/prostate weight (castrated rats, 0.01 mg/day): 3.02 | anabolic ratio muscle/prostate weight (castrated rats, 0.03 mg/day): 2.13 | anabolic ratio muscle/prostate weight (castrated rats, 0.1 mg/day): 2.27 | anabolic ratio muscle/prostate weight (castrated rats, 0.3 mg/day): 1.90 | anabolic ratio muscle/prostate weight (castrated rats, 0.75 mg/day): 1.83 | anabolic ratio muscle/prostate weight (castrated rats, 1 mg/day): 1.51 | derived dose that would restore levator ani muscle weight to 100% (castrated rats, oral gavage): 0.1 mg/day
